Assay results taken from patent publication US7396850B2, “Pyrazole derivative as PPAR modulator” (Eli Lilly and Company, priority 2003, dated 2008).

Assays:
PPARα = target: T1, PPARα (Homo sapiens, UniProt Q07869); assay: PPAR cotransfection (transactivation) assay in CV-1 cells, GAL4 chimeric system; assay type: cell-based
T1 sequence (Q07869 201-468 limits assumed): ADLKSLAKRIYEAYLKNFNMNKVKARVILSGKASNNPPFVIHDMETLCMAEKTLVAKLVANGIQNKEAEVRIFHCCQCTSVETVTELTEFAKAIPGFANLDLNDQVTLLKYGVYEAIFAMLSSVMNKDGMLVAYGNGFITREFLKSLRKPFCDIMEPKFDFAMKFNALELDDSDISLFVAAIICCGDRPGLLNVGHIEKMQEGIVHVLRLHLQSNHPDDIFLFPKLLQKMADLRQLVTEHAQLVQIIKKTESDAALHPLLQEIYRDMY
Description: (§1) DNA-dependent binding is carried out using SPA technology with PPAR receptors. Tritium-labeled PPARα agonists are used as radioligands for generating displacement curves and IC50 values with compounds of the invention. Cotransfection assays are carried out in CV-1 cells. The reporter plasmid contained an acylCoA oxidase (AOX) PPRE and TK promoter upstream of the luciferase reporter cDNA. Appropriate PPARs are constitutively expressed using plasmids containing the CMV promoter. For PPARα, interference by endogenous PPARγ in CV-1 cells is an issue. In order to eliminate such interference, a GAL4 chimeric system is used in which the DNA binding domain of the transfected PPAR is replaced by that of GAL4, and the GAL4 response element is utilized in place of the AOX PPRE. Cotransfection efficacy is determined relative to PPAR agonist reference molecules. Efficacies are determined by computer fit to a concentration-response curve, or in some cases at a single high concentration of agonist (10 μM).
(§2) These studies are carried out to evaluate the ability of compounds of the invention to bind to and/or activate various nuclear transcription factors, particularly huPPARδ (“hu” indicates “human”). These studies provide in vitro data concerning efficacy and selectivity of compounds of the invention.

PPARγ = target: T2, PPARγ (Homo sapiens, UniProt P37231); assay: PPAR cotransfection (transactivation) assay in CV-1 cells; assay type: cell-based
T2 construct: expressed in transfected cells; host or cells: CV-1 cells
T2 sequence (P37231 1-505): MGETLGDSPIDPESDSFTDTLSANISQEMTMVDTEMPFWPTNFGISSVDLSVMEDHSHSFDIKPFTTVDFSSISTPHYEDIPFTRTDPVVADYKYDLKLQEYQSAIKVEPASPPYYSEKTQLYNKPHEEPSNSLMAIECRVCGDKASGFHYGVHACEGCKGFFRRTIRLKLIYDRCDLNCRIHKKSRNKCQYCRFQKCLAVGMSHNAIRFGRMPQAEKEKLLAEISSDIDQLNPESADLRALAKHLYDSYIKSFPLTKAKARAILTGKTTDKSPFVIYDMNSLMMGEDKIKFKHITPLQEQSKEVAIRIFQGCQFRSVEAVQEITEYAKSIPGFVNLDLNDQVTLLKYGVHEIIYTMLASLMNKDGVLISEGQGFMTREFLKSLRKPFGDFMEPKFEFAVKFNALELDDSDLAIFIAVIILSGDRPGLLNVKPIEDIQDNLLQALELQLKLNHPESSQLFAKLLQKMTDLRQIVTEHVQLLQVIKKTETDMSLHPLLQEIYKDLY
Description: as §1, §2

PPARδ = target: T3, PPARδ (Homo sapiens, UniProt Q03181); assay: as above; assay type: cell-based
T3 construct: expressed in transfected cells; host or cells: CV-1 cells
T3 sequence (Q03181 1-441): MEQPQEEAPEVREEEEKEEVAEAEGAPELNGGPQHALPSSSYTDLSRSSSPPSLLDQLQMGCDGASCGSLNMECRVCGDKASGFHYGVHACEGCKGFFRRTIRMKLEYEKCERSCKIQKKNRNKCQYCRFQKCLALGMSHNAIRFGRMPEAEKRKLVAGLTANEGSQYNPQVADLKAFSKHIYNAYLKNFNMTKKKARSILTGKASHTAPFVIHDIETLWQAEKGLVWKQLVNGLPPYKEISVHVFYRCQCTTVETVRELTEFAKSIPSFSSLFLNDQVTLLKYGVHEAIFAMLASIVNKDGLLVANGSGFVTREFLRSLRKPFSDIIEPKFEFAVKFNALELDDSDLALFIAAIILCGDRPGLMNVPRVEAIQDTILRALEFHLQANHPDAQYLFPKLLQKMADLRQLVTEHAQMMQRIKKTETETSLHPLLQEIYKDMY
Description: as §1, §2

[1] = test system: obese, non-diabetic rhesus monkeys; assay: Dyslipidemic rhesus monkey model, oral dose-escalation study for 28 days; assay type: in vivo
Description: The compound of Formula 1 was examined in a dyslipidemic rhesus monkey model. […] HDL cholesterol increased by more than 40% in the 3.0 mg/kg b.i.d. dose group. LDL cholesterol decreased by approximately 25% in the 9.0 mg/kg b.i.d dose group, and a dose-related effect on triglycerides yielded a maximum 53% reduction in the 9.0 mg/k.g b.i.d dose group.

EC50 (PPARα): 1.8 µM | EC50 (PPARγ): 2.6 µM | EC50 (PPARδ): 0.02 µM
SMILES: Cc1cc(SCc2cn(-c3ccc(C(F)(F)F)cc3)nc2C)ccc1OCC(=O)O [Formula 1, {2-Methyl-4-[3-methyl-1-(4-trifluoromethyl-phenyl)-1H-pyrazol-4-ylmethylsulfanyl]-phenoxy}-acetic acid]
C-reactive protein levels ([1]; compared to pretreatment levels): reduced compared to pretreatment levels | HDL-c change ([1]; oral dose-escalation, 28 days, each dose): elevation of HDL-c with each dose | HDL cholesterol increase ([1]; oral, 3.0 mg/kg b.i.d. dose group): more than 40% | LDL cholesterol decrease ([1]; oral, 9.0 mg/kg b.i.d. dose group): approximately 25% | triglycerides maximum reduction ([1]; oral, 9.0 mg/kg b.i.d. dose group, dose-related effect): 53%
